# Measured values as given in patent US20250352675A1, “CA-IX TARGETING FLUORESCENT PROBES” (BRACCO IMAGING S.P.A., priority 2022, published 2025).
# Tests used:
# [1] = Optical characterization (excitation/emission maxima, molar extinction coefficient); assay type: physicochemical
# Experimental: A dual-beam UV-VIS spectrophotometer (Lambda 40, Perkin Elmer) was used to determine the absorbance (Abs) of the compounds of the invention. Emission/excitation (Em/Ex) spectra were carried out on a spectrofluorometer (FluoroLog-3 1IHR-320, Horiba Jobin Yvon) equipped with an F-3018 integrating sphere accessory. The measurements were performed using an excitation wavelength at maximum absorbance of different dyes, and the sample was excited with a 450W Xenon Light Source. Detection was performed by photomultiplier tubes (PMT-NIR) cooled detector or by TBX-04 detector. Dye solutions were carefully prepared to have an absorbance lower than 0.1 (optical densities) to minimize re-absorption phenomena.
# The compounds of the invention were characterized in terms of their optical properties in vitro in aqueous medium (i.e., water/PBS pH 7.4) and in a clinical chemistry control serum (Seronorm, Sero S A), mimicking the chemical composition and optical properties of human serum. All solutions were freshly prepared. In particular, the compounds of the invention are characterized by absorption maxima comprised in the range from about 750 nm to 780 nm.
# The excitation and emission maxima in PBS and Seronorm and the molar extinction coefficient (E) in water of representative compounds of formula (I) are shown in Table I in comparison with the known CA-IX targeting fluorescent probe named Hypoxyfluor-1 (HF-1, for instance disclosed in Bioconjugate Chem 2018, 29, 3320-3331). […] Moreover, the extinction coefficients were higher than […] for all compounds.
# [2] = molecular target: T1, recombinant bovine CAII enzyme (bCAII) (Bos taurus, UniProt P00921); assay: Dansylamide (DNSA) displacement fluorescence assay on carbonic anhydrase catalytic site; assay type: binding; details: 0.25 μM bCAII, 5 μM DNSA, 20 mM Tris pH 8; triplicate; read-out: CAII receptor affinity (KD)
# T1 construct: purchased Sigma-Aldrich; host or cells: E. coli
# T1 sequence (P00921 whole entry): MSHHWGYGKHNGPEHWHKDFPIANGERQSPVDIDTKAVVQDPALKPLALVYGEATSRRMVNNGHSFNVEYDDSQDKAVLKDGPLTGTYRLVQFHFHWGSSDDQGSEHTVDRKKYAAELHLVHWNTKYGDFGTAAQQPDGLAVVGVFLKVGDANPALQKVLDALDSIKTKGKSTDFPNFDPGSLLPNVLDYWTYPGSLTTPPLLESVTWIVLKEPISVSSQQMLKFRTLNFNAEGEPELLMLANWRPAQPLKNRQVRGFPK
# Experimental: The binding affinity of the compounds of formula (I) to Carbonic Anhydrase (CA) catalytic site was determined to assess the targeting efficacy of the molecular vectors, even after labeling the targeting ligand with the fluorescent portion of the probe.
# Such enzyme in fact is highly available and has a catalytic site with high degree of homology in different carbonic anhydrase isoforms (Aggarwal M. et al., J Enzyme Inhib Med Chem 2013; 28(2): 267-277).
# The dissociation constant (Ko) of compounds of formula (I) for bCAII was estimated by performing a fluorescence-based assay, exploiting the drop of fluorescence deriving from the displacement of carbonic anhydrase-bound dansylamide (DNSA) in presence of competitors and was adapted for application in 96-well plates from Wang S C et al., Biochem Mol Biol Educ. 2006, 34(5): 364-368. […] In both cases DNSA is excited at about 320 nm. Thus, excitation of carbonic anhydrase aromatic residues (Trp) at 285 nm generates an emission at 340 nm, that is quenched in presence of bound DNSA. The quenching occurs by FRET (fluorescence resonance energy transfer) to bound DNSA, which is in turn excited, emitting at 460 nm.
# Molecules that bind to CA in the same binding site of DNSA, such as sulfonamides or derivatives, competitively displace DNSA from CA. The degree of displacement is function of the affinity of competitors and can be followed through the drop of fluorescence at 460 nm.
# In detail, 5-(Dimethylamino)-1-naphthalenesulfonamide (dansylamide, DNSA, Sigma-Aldrich 218898) was reconstituted in 20 mM Tris pH 8, aliquoted and stored at −20° C.; bCAII (recombinant, expressed in E. Coli, Sigma-Aldrich) was divided in aliquots and stored at −20° C.
# DNSA fluorescence emission at 462 nm from each well was recorded after excitation at 285 nm (Trp wavelength of excitation) and consequent selective excitation of DNSA bound to bCAII by FRET. Fractional saturation of bCAII was experimentally determined through normalization of fluorescence data between 1 (no compounds) and 0 (maximal DNSA displacement by presence of binding competitors), according to the equation below: […]
# where r is fractional saturation, FLobs is the recorded fluorescence intensity, FLmin is the fluorescence intensity recorded at maximal concentration of compounds, and FLmax is fluorescence recorded in absence of compounds.
# The KD of CA-binding compounds (=KDcomp) was then derived by mathematical fitting of experimental data according to the equation: […]
# Mathematical fitting was performed using Microsoft Excel Solver.
# All compounds were tested in triplicate.
# [3] = Ex vivo biodistribution, organ-to-muscle ratio; assay type: in vivo, mice; details: 1 nmol/mouse, 24 hours after administration
# Experimental: The ex vivo biodistribution of the representative compounds 1, 2 and 3 and of the reference compound HF-1 (at 1 nmol/mouse) was evaluated in HT-29 excised tumors and tissues at the end of the in vivo OI sessions 24 hours post intravenous administration. At the end of the in vivo experiment, animals were euthanized by overdose of gaseous anesthesia followed by cervical dislocation. Tumor tissue, muscle, and other organs of interest were removed for ex vivo fluorescent signal measurements. The fluorescence signal intensity was measured by the IVIS Spectrum system. Regions of interest (ROIs) were drawn around each organ and tumor using the Living Image Software (PerkinElmer) and evaluating signal intensity in the tissues (expressed as Average Radiant Efficiency). The ratio between the fluorescence signal in the organs and tumor was then calculated to assess the contrast to hind limb muscle (representing the background).
# Moreover, FIG. 6 (b) and Table VIII show the accumulation and distribution of the fluorescent probes in the dissected organs, reporting the ex vivo values of organs-to-muscle ratio from samples collected at 24 hours after the administration of representative compounds 1, 2 and 3 and of the reference compound HF-1 (1 nmol/mouse).
Max Em ([1]; PBS pH 7.4) [nm],Max Ex ([1]; PBS pH 7.4) [nm],Max Em ([1]; Seronorm) [nm],Max Ex ([1]; Seronorm) [nm],Kd [2] [nM],"Organ-to-muscle ratio, intestine [3]","Organ-to-muscle ratio, kidney [3]","Organ-to-muscle ratio, liver [3]","Organ-to-muscle ratio, skin [3]","Organ-to-muscle ratio, spleen [3]","Organ-to-muscle ratio, stomach [3]",Compound
783,752,791,768,6.2 ± 0.6,1.5 ± 0.3,8.3 ± 1.9,3.3 ± 1.1,1.1 ± 0.2,0.5 ± 0.1,11.3 ± 3.2,CC1(C)C(/C=C/C=C/C=C/C=C2/N(CCCCS(=O)(=O)O)c3ccc(C(=O)NC[C@H](O)[C@@H](O)[C@H](O)[C@H](O)CO)cc3C2(C)C)=[N+](CCCCS(=O)(=O)[O-])c2ccc(C(=O)NCCCCCCCC(=O)Nc3nnc(S(N)(=O)=O)s3)cc21 [Compound 1]
784,754,788,768,3.7 ± 0.3,1.2 ± 0.1,4.0 ± 1.7,2.7 ± 0.4,1.6 ± 0.4,1.0 ± 0.1,7.1 ± 1.2,CC1(C)C(/C=C/C=C/C=C/C=C2/N(CCCCS(=O)(=O)O)c3ccc(S(=O)(=O)O)cc3C2(C)C)=[N+](CCCCS(=O)(=O)[O-])c2ccc(C(=O)NCCCCCCCC(=O)Nc3nnc(S(N)(=O)=O)s3)cc21 [Compound 2]
802,776,810,792,3.8 ± 0.5,1.5 ± 0.2,4.7 ± 1.6,3.1 ± 0.6,1.0 ± 0.1,1.0 ± 0.1,3.5 ± 0.3,CC1(C)C(/C=C/C2=C(Oc3ccc(S(=O)(=O)O)cc3)C(=C/C=C3/N(CCCCS(=O)(=O)O)c4ccc(S(=O)(=O)O)cc4C3(C)C)/CCC2)=[N+](CCCCS(=O)(=O)[O-])c2ccc(C(=O)NCCCCCCCC(=O)Nc3nnc(S(N)(=O)=O)s3)cc21 [Compound 3]
